Square brackets hold non-standard residues; d marks the D form. Peptide text beside a SMILES is read from it. Dap = NC[C@H](N)C(=O)O
Columns and labels:
[1] = Stability of the compound in presence of pronase (unknown origin) assessed as degradation measured after 360 mins by HPLC analysis; type: ADME; conditions: read-out: Drug degradation
[2] = Stability of the compound in presence of pronase (unknown origin) assessed as degradation measured after 60 mins by HPLC analysis; type: ADME; conditions: read-out: Drug degradation
[3] = Stability of the compound in presence of alpha-chymotrypsin (unknown origin) assessed as degradation measured after 360 mins by HPLC analysis; type: ADME, Homo sapiens; conditions: read-out: Drug degradation
[4] = Stability of the compound in presence of pepsin (unknown origin) assessed as degradation measured after 360 mins by HPLC analysis; type: ADME, Homo sapiens; conditions: read-out: Drug degradation
[5] = Stability of the compound in presence of pepsin (unknown origin) assessed as degradation measured after 60 mins by HPLC analysis; type: ADME, Homo sapiens; conditions: read-out: Drug degradation
[6] = Stability of the compound in presence of alpha-chymotrypsin (unknown origin) assessed as degradation measured after 60 mins by HPLC analysis; type: ADME, Homo sapiens; conditions: read-out: Drug degradation
[7] = Stability of the compound in presence of pepsin (unknown origin) assessed as degradation measured after 120 mins by HPLC analysis; type: ADME, Homo sapiens; conditions: read-out: Drug degradation
Vasopressin V2 receptor = Vasopressin V2 receptor (Homo sapiens, UniProt P30518); assay: Binding affinity to vasopression V2 receptor (unknown origin) on isolated cell membrane by vasopression competition binding assay
Chain of Vasopressin V2 receptor (P30518 whole entry): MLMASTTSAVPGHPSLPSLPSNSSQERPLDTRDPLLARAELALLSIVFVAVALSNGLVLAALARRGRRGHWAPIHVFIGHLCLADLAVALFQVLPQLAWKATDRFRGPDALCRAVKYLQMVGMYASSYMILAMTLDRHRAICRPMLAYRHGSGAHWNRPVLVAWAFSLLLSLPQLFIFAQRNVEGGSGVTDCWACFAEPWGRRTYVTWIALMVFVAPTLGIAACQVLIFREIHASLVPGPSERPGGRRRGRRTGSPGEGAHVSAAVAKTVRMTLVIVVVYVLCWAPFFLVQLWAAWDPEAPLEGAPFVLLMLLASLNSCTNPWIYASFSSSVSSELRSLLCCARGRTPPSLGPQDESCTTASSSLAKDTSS

[8] = Stability of the compound in presence of pronase (unknown origin) assessed as degradation measured after 120 mins by HPLC analysis; type: ADME; conditions: read-out: Drug degradation
[9] = Stability of the compound in presence of alpha-chymotrypsin (unknown origin) assessed as degradation measured after 120 mins by HPLC analysis; type: ADME, Homo sapiens; conditions: read-out: Drug degradation

Row | SMILES | metabolised at 6 h [1] [%] | metabolised at 1 h [2] [%] | metabolised at 6 h [3] [%] | metabolised at 6 h [4] [%] | metabolised at 1 h [5] [%] | metabolised at 1 h [6] [%] | metabolised at 2 h [7] [%] | IC50 (Vasopressin V2 receptor) [µM] | metabolised at 2 h [8] [%] | metabolised at 2 h [9] [%]
1 | NC(=O)CC[C@@H]1NC(=O)[C@H](Cc2ccccc2)NC(=O)[C@H](Cc2ccc(O)cc2)NC(=O)[C@H](Cc2ccc(O)cc2)NC(=O)CNC(=O)[C@H](CC(N)=O)NC1=O (cyclo(FQNGYY)) | 64.2 | 27.9 | 24.7 | 5.23 | 5.39 | -0.98 | 10.2 | 2 | 50.2 | 1.49
2 | NC[C@@H]1NC(=O)CNC(=O)[C@H](CC(N)=O)NC(=O)[C@H](CCC(N)=O)NC(=O)[C@H](Cc2ccccc2)NC(=O)[C@H](Cc2ccc(O)cc2)NC1=O (cyclo([Dap]YFQNG)) | 0.882 | -2.07 | 20.3 | 2.08 | 0.716 | 6.62 | 3.52 | 10.2 | 0.323 | 7.08
3 | CC[C@H](C)[C@@H]1NC(=O)[C@H](Cc2ccc(O)cc2)NC(=O)[C@H](CN)NC(=O)CNC(=O)[C@H](CC(N)=O)NC(=O)[C@H](CCC(N)=O)NC1=O (cyclo([Dap]YIQNG)) | 6.2 | 11.5 | 0.0955 | 4.66 | 2.34 | 0.136 | -0.41 |  | 2.99 | 0
4 | CC[C@H](C)[C@@H]1NC(=O)[C@H](Cc2ccc(O)cc2)NC(=O)[C@@H](N)CSSC[C@@H](C(=O)N2CCC[C@H]2C(=O)N[C@@H](CC(C)C)C(=O)NCC(N)=O)NC(=O)[C@H](CC(N)=O)NC(=O)[C@H](CCC(N)=O)NC1=O [OXYTOCIN] | 100 | 69.6 | 74.6 |  |  | 25.1 |  |  | 96.8 | 43.2
5 | NC(=O)CC[C@@H]1NC(=O)[C@H](Cc2ccccc2)NC(=O)[C@H](Cc2ccc(O)cc2)NC(=O)[C@@H](N)CSSC[C@@H](C(=O)N2CCC[C@H]2C(=O)N[C@@H](CCCN=C(N)N)C(=O)NCC(N)=O)NC(=O)[C@H](CC(N)=O)NC1=O [VASOPRESSIN] | 48.2 | 4.4 | 46.1 | 80.1 | 79.8 | 18.7 | 78.6 |  | 15.9 | 32.1
